Laboratory results reported in article PMC12655351, “Synthesis and Anticancer Activity Evaluation of New 5-((5-Nitrofuran-2-yl)allylidene)-2-thioxo-4-thiazolidinones” (Pharmaceuticals, 2025).

What was measured:
MCF-7 = experiment: MTT assay; format: cell-based; conditions: Homo sapiens, MCF7; MCF-7, 24 h of treatment
Experimental: (§1) The NCI-60 screening protocol utilizes the sulforhodamine B (SRB) assay following 48 h of compound exposure. […] The MTT assay was performed on eleven cancer cell lines: human breast cancer (MDA-MB-231, MCF-7, HCC 1954), human gastric cancer (AGS), human colorectal adenocarcinoma (HT-29, DLD-1, HCT 116), human neuroblastoma (SH SY5Y), and human leukemia (JURKAT, RMPI 8866, K-562) cell lines. The study was conducted in triplicate at the following seven concentrations: 0.62, 1.25, 2.5, 5, 10, 20, and 40 μM.
(§2) The selected cell lines were seeded into 96-well plates and cultured in accordance with the previously described methodology. Then, the cells were treated with all tested compounds and DOX at concentrations of 0.625, 1.25, 2.5, 5.0, 10.0, 20.0, and 40.0 μM for 24 h. A solution of 3-(4,5-dimethyl-2-thiazolyl)-2,5-diphenyl-2H-tetrazolium bromide (Sigma-Aldrich, St. Louis, MO, USA) in phosphate-buffered saline without calcium and magnesium (Corning, Kennebunk, ME, USA) at a concentration of 5 mg/mL was used to carry out MTT assay. After incubation, 20 μL of the prepared MTT solution was added, and then the cells were incubated at 37 °C for two hours. Afterwards, the cells were lysed using 100 μL of lysing buffer (comprising 25 mM HCl, 2% acetic acid, 3% DMF, and 5% SDS, with a pH of 4.7). The absorbance was determined at a wavelength of 570 nm using an Absorbance 96 microplate reader (Byonoy GmbH, Hamburg, Germany).

DLD-1 = experiment: MTT assay; format: cell-based; conditions: Homo sapiens; DLD-1, 24 h of treatment
Experimental: as §1, §2

HT-29 = experiment: MTT assay; format: cell-based; conditions: Homo sapiens; HT-29, 24 h of treatment
Experimental: as §1, §2

SH SY5Y = experiment: MTT assay; format: cell-based; conditions: Homo sapiens, 24 h of treatment
Experimental: as §1, §2

HCT-116 [1] = experiment: MTT assay; format: cell-based; conditions: Homo sapiens; HCT-116, 24 h of treatment
Experimental: as §1, §2

HCC-1954 = experiment: MTT assay; format: cell-based; conditions: Homo sapiens, HCC1954; HCC-1954, 24 h of treatment
Experimental: as §1, §2

Jurkat = experiment: MTT assay; format: cell-based; conditions: Homo sapiens, 24 h of treatment
Experimental: as §1, §2

AGS = experiment: MTT assay; format: cell-based; conditions: Homo sapiens, 24 h of treatment
Experimental: as §1, §2

MDA-MB-231 = experiment: MTT assay; format: cell-based; conditions: Homo sapiens; MDA-MB-231, 24 h of treatment
Experimental: as §1, §2

K562 = experiment: MTT assay; format: cell-based; conditions: Homo sapiens; K562, 24 h of treatment
Experimental: as §1, §2

RPMI 8866 = experiment: MTT assay; format: cell-based; conditions: Homo sapiens; RPMI 8866, 24 h of treatment
Experimental: as §1, §2

SK-MEL-2 = experiment: NCI-60 SRB screen; conditions: SK-MEL-2, 48 h; for GI50 / CC50: Homo sapiens; for CC50: read-out: LC50, SK-MEL-2, 48 h
SK-MEL-5 = experiment: cells; conditions: Homo sapiens, SK-MEL-5, 48 h; for CC50: read-out: LC50, SK-MEL-5, 48 h
NCI-H322M = experiment: NCI-60 SRB screen; conditions: 48 h; for GI50 / CC50: Homo sapiens; for CC50: read-out: LC50, NCI-H322M, 48 h
OVCAR-3 = experiment: cells; conditions: Homo sapiens, OVCAR-3, 48 h
CCRF-CEM = experiment: cells; conditions: Homo sapiens, 48 h
HT29 [2] = experiment: cells; conditions: Homo sapiens, HT-29, 48 h
Melanoma = Melanoma subpanel
NCI-H23 = experiment: cells; conditions: Homo sapiens, NCI-H23, 48 h; for CC50: read-out: LC50, NCI-H23, 48 h
LOX IMVI = experiment: cells; conditions: Homo sapiens, 48 h; for CC50: read-out: LC50, LOX IMVI, 48 h
SF-268 = conditions: SF-268, 48 h
786-0 = experiment: cells; conditions: Homo sapiens, 786-0, 48 h
CAKI-1 = experiment: cells; conditions: Homo sapiens, CAKI-1, 48 h
A498 = conditions: for TGI: A498, 48 h
NCI/ADR-RES = conditions: 48 h
HCT-116 [3] = conditions: HCT-116, 48 h
T-47D = experiment: cells; conditions: Homo sapiens, T47D, 48 h; for GI50: T-47D
CNS cancer = experiment: cells; conditions: Homo sapiens; for GI50: read-out: MG_MID GI50; for CC50: read-out: MG_MID LC50
SNB-19 = experiment: NCI-60 SRB screen; conditions: for GI50 / CC50: Homo sapiens; for GI50 / CC50 / TGI: SNB-19, 48 h; for CC50: read-out: LC50, SNB-19, 48 h
HT29 [4] = conditions: HT29, 48 h
MDA-MB-468 = experiment: NCI-60 SRB screen; conditions: MDA-MB-468, 48 h; for GI50 / CC50: Homo sapiens; for CC50: read-out: LC50, MDA-MB-468, 48 h
HOP-92 = experiment: NCI-60 SRB screen; conditions: HOP-92, 48 h; for GI50 / CC50: Homo sapiens; for CC50: read-out: LC50, HOP-92, 48 h

`CC(C(=O)O)N1C(=O)/C(=C/C=C/c2ccc([N+](=O)[O-])o2)SC1=S` (stereo not shown) [2b, 2-((Z)-5-((E)-3-(5-Nitrofuran-2-yl)allylidene)-4-oxo-2-thioxothiazolidin-3-yl)propanoic acid] gave an IC50 (MCF-7) of 11.3 µM, an IC50 (DLD-1) of 9.98 µM and an IC50 (HT-29) of 24.5 µM. For the same compound, the IC50 (SH SY5Y) was 30.6 µM, the IC50 (HCT-116 [1]) was 39 µM and the IC50 (HCC-1954) was 12.5 µM. For the same compound, the IC50 (Jurkat) was 4.78 µM, the IC50 (AGS) was 12.1 µM and the IC50 (MDA-MB-231) was 25.4 µM. It also gave an IC50 (K562) greater than 40 µM and an IC50 (RPMI 8866) of 29 µM.

For `CC(C)C(C(=O)O)N1C(=O)/C(=C/C=C/c2ccc([N+](=O)[O-])o2)SC1=S` (stereo not shown) [5b, 3-Methyl-2-((Z)-5-((E)-3-(5-nitrofuran-2-yl)allylidene)-4-oxo-2-thioxothiazolidin-3-yl)butanoic acid], the IC50 (MCF-7) was 3.32 µM, the IC50 (DLD-1) was 3.86 µM and the IC50 (HT-29) was 7.74 µM. For the same compound, the IC50 (SH SY5Y) was 9.37 µM, the IC50 (HCT-116 [1]) was 4.21 µM and the IC50 (HCC-1954) was 6.42 µM. The IC50 (Jurkat) was 3.73 µM, the IC50 (AGS) was 2.65 µM and the IC50 (MDA-MB-231) was 9.12 µM. It also gave an IC50 (K562) of 16.1 µM, an IC50 (RPMI 8866) of 13.5 µM and a GI50 (SK-MEL-2) of 1.52 µM. For the same compound, the CC50 (SK-MEL-2) was 6.02 µM, the TGI (SK-MEL-2) was 3.03 µM and the GI50 (SK-MEL-5) was 1.03 µM. It also gave a CC50 (SK-MEL-5) of 4.74 µM, a TGI (NCI-H322M) of 3.88 µM and a GI50 (NCI-H322M) of 1.82 µM. For the same compound, the CC50 (NCI-H322M) was 8.29 µM, the GI50 (OVCAR-3) was 1.34 µM and the GI50 (CCRF-CEM) was 0.36 µM. For the same compound, the GI50 (HT29 [2]; HT29, 48 h) was 1.37 µM, the CC50 (HT29 [2]; read-out: LC50, HT29, 48 h) was 6.14 µM and the “MG_MID TGI” value (Melanoma) was 2.68 µM. It also gave a GI50 (NCI-H23) of 1.75 µM, a CC50 (NCI-H23) of 6.63 µM and a GI50 (LOX IMVI) of 1.16 µM. For the same compound, the CC50 (LOX IMVI) was 5.33 µM, the TGI (SF-268) was 3.57 µM and the GI50 (786-0) was 1.06 µM. The GI50 (CAKI-1) was 1.17 µM, the TGI (A498) was 4.81 µM and the TGI (NCI/ADR-RES) was 4.13 µM. For the same compound, the TGI (HCT-116 [3]) was 1.13 µM, the GI50 (T-47D) was 1.12 µM and the GI50 (CNS cancer) was 1.28 µM. For the same compound, the CC50 (CNS cancer) was 5.93 µM, the GI50 (SNB-19) was 1.64 µM and the CC50 (SNB-19) was 5.53 µM. For the same compound, the “growth GP” value (SNB-19; SNB-19, 10 μM, 48 h) was -97.77%, the TGI (SNB-19) was 3.01 µM and the TGI (HT29 [4]) was 2.90 µM. For the same compound, the GI50 (MDA-MB-468) was 1.37 µM, the CC50 (MDA-MB-468) was 6.16 µM and the TGI (MDA-MB-468) was 2.90 µM. For the same compound, the TGI (HOP-92) was 4.17 µM, the GI50 (HOP-92) was 2.13 µM and the CC50 (HOP-92) was 8.15 µM.

`O=C(O)CCN1C(=O)/C(=C/C=C/c2ccc([N+](=O)[O-])o2)SC1=S` [12b, 3-((Z)-5-((E)-3-(5-Nitrofuran-2-yl)allylidene)-4-oxo-2-thioxothiazolidin-3-yl)propanoic acid] was tested, and the IC50 (MCF-7) was 3.01 µM, the IC50 (DLD-1) was 3.31 µM and the IC50 (HT-29) was 8.56 µM. The IC50 (SH SY5Y) was 13.1 µM, the IC50 (HCT-116 [1]) was 3.68 µM and the IC50 (HCC-1954) was 4.86 µM. The IC50 (Jurkat) was 1.77 µM, the IC50 (AGS) was 3.65 µM and the IC50 (MDA-MB-231) was 12.9 µM. It also gave an IC50 (K562) of 7.15 µM, an IC50 (RPMI 8866) of 7.78 µM and a GI50 (SK-MEL-2) of 1.44 µM. For the same compound, the CC50 (SK-MEL-2) was 5.68 µM, the TGI (SK-MEL-2) was 2.86 µM and the GI50 (SK-MEL-5) was 1.03 µM. It also gave a CC50 (SK-MEL-5) of 4.87 µM, a TGI (NCI-H322M) of 19.8 µM and a GI50 (NCI-H322M) of 7.06 µM. The CC50 (NCI-H322M) was 44.7 µM, the GI50 (OVCAR-3) was 1.36 µM and the GI50 (CCRF-CEM) was 0.25 µM. The “MG_MID TGI” value (Melanoma) was 2.60 µM, the GI50 (NCI-H23) was 1.69 µM and the CC50 (NCI-H23) was 6.7 µM. For the same compound, the GI50 (LOX IMVI) was 0.58 µM, the CC50 (LOX IMVI) was 4.34 µM and the TGI (SF-268) was 3.18 µM. For the same compound, the GI50 (786-0) was 1.38 µM, the GI50 (CAKI-1) was 1.42 µM and the “growth GP” value (A498; A498, 10 μM, 48 h) was -96.94%. The TGI (A498) was 27.4 µM, the TGI (NCI/ADR-RES) was 4.28 µM and the TGI (HCT-116 [3]) was 3.57 µM. It also gave a GI50 (T-47D) of 0.94 µM, a CC50 (T-47D; read-out: LC50) greater than 100 µM and a GI50 (CNS cancer) of 1.62 µM. The CC50 (CNS cancer) was 12.3 µM, the GI50 (SNB-19) was 2.3 µM and the CC50 (SNB-19) was 22.9 µM. The TGI (SNB-19) was 6.37 µM, the TGI (HT29 [4]) was 12.5 µM and the GI50 (MDA-MB-468) was 0.66 µM. It also gave a CC50 (MDA-MB-468) of 5.71 µM, a TGI (MDA-MB-468) of 2.14 µM and a TGI (HOP-92) of 3.50 µM. It also gave a GI50 (HOP-92) of 1.83 µM and a CC50 (HOP-92) of 6.72 µM.
